Patent EP1200406B1, “CYCLIC AMIDES AND IMIDES HAVING SELECTIVE ANTAGONIST ACTIVITY AT ALPHA-1D ADRENERGIC RECEPTOR” (RECORDATI INDUSTRIA CHIMICA E FARMACEUTICA S.p.a., priority 1999, dated 2001)

Key:
[1] = target: T1, human recombinant α1b adrenoceptor (Homo sapiens, UniProt P35368); experiment: Radioligand binding ([3H]prazosin) on membranes of CHO cells expressing cloned α1b adrenoceptor; conditions: human cloned receptor, CHO cell membranes, 0.2 nM [3H]prazosin; read-out: Affinity (Ki) α1b
T1 construct: expressed in transfected cells; host or cells: CHO cells (membranes)
T1 sequence (P35368 1-520): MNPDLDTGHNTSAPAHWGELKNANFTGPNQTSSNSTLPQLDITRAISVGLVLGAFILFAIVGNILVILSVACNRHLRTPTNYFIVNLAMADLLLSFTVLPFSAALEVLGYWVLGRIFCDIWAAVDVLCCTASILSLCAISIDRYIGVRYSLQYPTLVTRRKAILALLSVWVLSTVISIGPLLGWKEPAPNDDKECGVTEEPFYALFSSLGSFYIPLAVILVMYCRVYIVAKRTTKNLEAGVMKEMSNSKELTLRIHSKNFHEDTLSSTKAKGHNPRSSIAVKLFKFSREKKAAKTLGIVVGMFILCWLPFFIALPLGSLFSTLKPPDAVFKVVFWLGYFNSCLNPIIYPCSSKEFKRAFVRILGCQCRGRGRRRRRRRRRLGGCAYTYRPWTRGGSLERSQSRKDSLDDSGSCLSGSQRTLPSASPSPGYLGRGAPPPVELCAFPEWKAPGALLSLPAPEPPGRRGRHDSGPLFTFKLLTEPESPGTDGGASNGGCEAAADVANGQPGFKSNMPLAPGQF
Experimental: (§1) The determination of affinity for cloned subtypes of human α1 adrenergic receptors was performed in membranes from CHO cells (chinese hamster ovary cells) transfected by electroporation with DNA expressing the genes encoding each α1-adrenoceptor subtype, namely α1a, α1b and α1d.. Cloning and stable expression of the human α1-adrenoceptor gene were performed as previously described (Testa et al., Pharmacol. Comm. 6, 79-86 (1995)). CHO cell membranes were incubated in […] Tris pH 7.4 with 0.2 nM [^3H]prazosin, in a final volume of 1.02 ml for 30 minutes at 25°C, in the absence or presence of competing drugs (1 pM-10 µM). Non-specific binding was determined in the presence of 10 µM phentolamine. Incubation was stopped by addition of ice-cold Tris buffer and rapid filtration through 0.2% polyethyleneimine pretreated Schleicher & Schuell GF52 filters. Genomic clone G-21 coding for the human 5-HT1A-serotoninergic receptor was stably transfected in a human cell line (HeLa) (Fargin et al., J. Biol. Chem. 284, 14848-14852 (1989)). The HeLa cells were grown as monolayers in Dulbecco's modified Eagle's medium (DMEM), supplemented with 10% foetal calf serum and gentamicin (100 µg/ml), 5% CO2, at 37°C. The cells were detached from the growth flask at 95% confluence by a cell scraper and were lysed in ice-cold 5 mM Tris and 5-mM EDTA buffer (pH 7.4). The homogenates were centrifuged at 40000 x g x 20 minutes and the membranes were re-suspended in a small volume of ice-cold 5 mM Tris and 5-mM EDTA buffer (pH 7.4) and immediately frozen and stored at -70°C until use. On the experiment day, the cell membranes were re-suspended in a buffer containing 50 mM Tris (pH 7.4), 2.5 mM MgCl2, 10 µM pargyline (Fargin et al., Nature 335, 358-360 (1988)). […] The incubation was stopped by addition of ice-cold Tris buffer and rapid filtration through 0.2%-polyethyleneimine-pretreated Schleicher & Schuell filters. The inhibition of specific binding of the radioligands by the drugs was analysed to estimate the IC50 value by using the non-linear curve-fitting programme Allfit (De Lean et al., Am. J. Physiol. 235, E97-E102 (1978)). The IC50 value was converted to an affinity constant (Ki) by the equation of Cheng & Prusoff (Biochem. Pharmacol. 22, 3099-3108 (1973)). Data were expressed as mean of Ki.

[2] = target: T2, human 5-HT1A-serotoninergic receptor (Homo sapiens, UniProt P08908); experiment: Radioligand binding ([3H]8-OH-DPAT) on membranes of HeLa cells expressing cloned 5-HT1A receptor; conditions: human cloned receptor, HeLa cell membranes, 1.2 nM [3H]8-OH-DPAT; read-out: Affinity (Ki) 5-HT1A
T2 construct: expressed in transfected cells; host or cells: HeLa cells (membranes)
T2 sequence (P08908 1-422): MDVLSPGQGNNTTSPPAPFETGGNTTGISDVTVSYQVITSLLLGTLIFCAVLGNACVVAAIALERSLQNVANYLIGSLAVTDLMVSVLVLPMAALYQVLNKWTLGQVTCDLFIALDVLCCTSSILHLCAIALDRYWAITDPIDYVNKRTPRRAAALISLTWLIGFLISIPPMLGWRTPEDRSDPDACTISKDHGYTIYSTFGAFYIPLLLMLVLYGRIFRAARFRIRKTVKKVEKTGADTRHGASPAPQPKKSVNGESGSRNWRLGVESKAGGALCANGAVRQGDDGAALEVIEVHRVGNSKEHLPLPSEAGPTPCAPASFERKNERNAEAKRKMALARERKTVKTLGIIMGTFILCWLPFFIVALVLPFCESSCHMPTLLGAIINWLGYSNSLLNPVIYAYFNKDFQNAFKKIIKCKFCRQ
Experimental: as §1

Guinea pig spleen α1B = target: T3, Guinea pig spleen α1B (Cavia porcellus, UniProt H0WBQ9); conditions: footnote a: Eltze M., Eur. J. Pharmacol. 260, 211-220 (1994); cited from earlier work
T3 construct: from tissue; host or cells: guinea pig spleen, longitudinal strips
T3 sequence (H0WBQ9 1-520): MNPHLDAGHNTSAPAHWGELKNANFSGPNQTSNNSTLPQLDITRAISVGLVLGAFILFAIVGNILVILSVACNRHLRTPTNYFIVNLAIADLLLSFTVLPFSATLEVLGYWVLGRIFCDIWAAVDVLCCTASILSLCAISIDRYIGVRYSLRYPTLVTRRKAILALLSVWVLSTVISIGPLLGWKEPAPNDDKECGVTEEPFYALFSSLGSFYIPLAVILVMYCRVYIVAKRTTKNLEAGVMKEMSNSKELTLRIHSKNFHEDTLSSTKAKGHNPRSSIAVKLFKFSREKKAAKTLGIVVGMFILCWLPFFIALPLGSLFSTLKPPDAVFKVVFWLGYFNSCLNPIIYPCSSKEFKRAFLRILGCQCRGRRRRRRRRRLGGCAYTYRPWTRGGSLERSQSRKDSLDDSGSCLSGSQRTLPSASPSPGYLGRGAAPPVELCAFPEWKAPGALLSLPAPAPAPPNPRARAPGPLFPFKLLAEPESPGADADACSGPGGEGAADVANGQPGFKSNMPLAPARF

Ki [1]: 0.069 µM
Ki [2]: 0.00093 µM
SMILES: COc1ccccc1N1CCN(CCN2C(=O)CC3(CCCC3)CC2=O)CC1 [BMY-7378, reference compound]
Functional affinity pKB, Guinea pig spleen α1B (Guinea pig spleen α1B): 6.55^a
